Holding throughout (type): cell-based
One test concerns the target T1, α1β1 GABAA receptors (Rattus norvegicus, UniProt P15431+P62813).
T1 construct: expressed in transfected cells; host or cells: Xenopus laevis oocytes, mRNA injected
Briefly: Two electrode voltage clamp in Xenopus laevis oocytes, α1β1. Particulars: α1β1, α1β1γ1 and α1β1δ receptors (Fig. 6), versus compound 1. From the text: (§1) cDNA’s of rat GABAA receptor subunits α1, α4, β1, β2, β3 and γ2S were cloned as described. cDNAs of the rat subunits α2, α3 and α5 were gifts from P. Malherbe, that of α6 and γ1 were gifts of P. Seeburg and that of δ was a gift of C. Czajkowski. The mutants were constructed using the Q5 Site-Directed Mutagenesis Kit (New England Biolabs) following manufacturer’s instruction. We used the wild-type rat β3-pCI vector as template and the primers […] and […] resulting in a substitution of amino acid N41 (AAC) to R (AGG). We used the wild-type rat β1-pCI vector as template and the primers […] and […] resulting in a substitution of amino acid R41 (CGG) to N (AAC). The mutated subunits were confirmed by sequencing.
(§2) In vitro transcription of mRNA was based on the cDNA expression vectors encoding for rat GABAA receptor subunits α1–6, β1-3, γ1,2, δ and the two β mutants (β1R41N and β3N41R)[40]. After linearizing the cDNA vectors with appropriate restriction endonucleases, the cDNA was purified and concentrated with the DNA Clean and Contentrator ^TM Kit (Zymoresearch, Catalog No. D4005). Capped transcripts of the purified cDNA were produced using the mMESSAGE mMACHINE® T7 transcription kit (Ambion, TX, USA) and polyadenylated using the Ambion PolyA tailing kit (Ambion). After transcription and polyadenylation the RNA was purified with the MEGAclear ^TM Kit (Ambion, Catalog No. AM1908). The final RNA concentration was measured on NanoDrop® ND-1000 and finally diluted and stored in diethylpyrocarbonate-treated water at −80 °C. For the microinjection, the RNA of αβ receptor combinations was mixed at 1:1 ratio (which leads to αβ receptors that consist of predominantly 3 beta and 2 alpha subunits[27]), for αkβlγm (k = 1–3, l = 1, 3, m = 1, 2) receptors at 1:1:5 ratio, for αkβ3γ2 (k = 4–6) and αkβlδ (k = 1, 4 and 6, l = 1, 3) receptor combinations at 3:1:5 ratio.
(§3) Mature female Xenopus laevis (Nasco, WI) were anesthetized in a bath of ice-cold 0.17% Tricain (Ethyl-m-aminobenzoate, Sigma, MO) before decapitation in full accordance with all rules of the Austrian animal protection law (see http://www.ris.bka.gv.at/Dokumente/BgblAuth/BGBLA_2012_I_114/BGBLA_2012_I_114.pdf) and the Austrian animal experiment by-laws (see https://www.ris.bka.gv.at/Dokumente/BgblAuth/BGBLA_2012_II_522/BGBLA_2012_II_522.pdf) which implement the European Directive 2010/63/EU (see http://eur-lex.europa.eu/LexUriServ/LexUriServ.do?uri=OJ:L:2010:276:0033:0079:en:PDF) into the Austrian law (all information accessed on July 27, 2016). The frog’s ovaries were transferred to ND96 medium (96 mM NaCl, 2 mM KCl, 1 mM MgCl2, 5 mM HEPES; pH 7.5). Stage 5–6 oocytes with the follicle cell layer around them were roughly dissected with forceps into packages of 10–15 cells and washed in Ca^2+-free ND96 medium. Cells were then digested with collagenase (type IA, Sigma, NO, 1 mg/mL ND96) at 18 °C shaking at 30 rpm for 30–60 minutes and gently defolliculated with the aid of a glass pipette with appropriate tip diameter and a platinum loop. Defolliculated cells were stored at 18 °C for at least 6 hours in ND96 solution containing penicillin G (10000 IU/100 mL) and streptomycin (10 mg/100 mL) in order to preselect and exclude damaged cells from further treatment. Healthy defolliculated oocytes were injected with an aqueous solution of mRNA. A total of 4.5 ng of mRNA per oocyte was injected with a Nanoject II (Drummond). After injection of mRNA, oocytes were incubated at 18 °C (ND96 + antibiotic) for 2–3 days for αβ receptors and for 3–4 days for αβγ or αβδ receptors before recording. When cells were measured at later time points, oocytes were stored at +4 °C instead of 18 °C.
(§4) For electrophysiological recordings, oocytes were placed on a nylon-grid in a bath of Ca^2+-containing NDE solution medium [96 mM NaCl, 5 mM HEPES-NaOH (pH 7.5), 2 mM KCl, 1 mM MgCl2, 1.8 mM CaCl2].

The next test has as its target T2, α1β1γ1 GABAA receptors (Rattus norvegicus, UniProt P15431+P62813).
T2 construct: expressed in transfected cells; host or cells: Xenopus laevis oocytes, mRNA injected
Briefly: Two electrode voltage clamp in Xenopus laevis oocytes, α1β1γ1.
Excerpt: as §1, §2, §3, §4

The target of a further test is T3, α1β1δ GABAA receptors (Rattus norvegicus, UniProt P15431+P62813).
T3 construct: expressed in transfected cells; host or cells: Xenopus laevis oocytes, mRNA injected
Briefly: Two electrode voltage clamp in Xenopus laevis oocytes, α1β1δ.
Excerpt: as §1, §2, §3, §4
On the technique in general: Two-electrode voltage clamp is typically applied to oocytes expressing channels or transporters.

Molecules are shown by their SMILES.

These results are taken from paper PMC5516028, “Molecular tools for GABAA receptors: High affinity ligands for β1-containing subtypes” (Scientific Reports, 2017).

T3 sequence (P62813 28-455): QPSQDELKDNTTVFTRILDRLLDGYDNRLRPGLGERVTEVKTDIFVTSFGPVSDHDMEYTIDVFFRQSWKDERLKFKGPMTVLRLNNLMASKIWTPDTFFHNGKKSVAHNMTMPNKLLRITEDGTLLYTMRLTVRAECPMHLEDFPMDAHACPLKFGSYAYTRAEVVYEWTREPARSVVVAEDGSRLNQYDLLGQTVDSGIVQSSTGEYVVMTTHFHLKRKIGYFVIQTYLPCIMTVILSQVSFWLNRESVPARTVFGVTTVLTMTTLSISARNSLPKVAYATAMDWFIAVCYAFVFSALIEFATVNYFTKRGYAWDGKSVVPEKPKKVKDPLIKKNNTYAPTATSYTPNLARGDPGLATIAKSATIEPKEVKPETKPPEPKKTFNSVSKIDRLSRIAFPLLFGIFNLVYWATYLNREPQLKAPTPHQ
T3 sequence (P15431 26-474): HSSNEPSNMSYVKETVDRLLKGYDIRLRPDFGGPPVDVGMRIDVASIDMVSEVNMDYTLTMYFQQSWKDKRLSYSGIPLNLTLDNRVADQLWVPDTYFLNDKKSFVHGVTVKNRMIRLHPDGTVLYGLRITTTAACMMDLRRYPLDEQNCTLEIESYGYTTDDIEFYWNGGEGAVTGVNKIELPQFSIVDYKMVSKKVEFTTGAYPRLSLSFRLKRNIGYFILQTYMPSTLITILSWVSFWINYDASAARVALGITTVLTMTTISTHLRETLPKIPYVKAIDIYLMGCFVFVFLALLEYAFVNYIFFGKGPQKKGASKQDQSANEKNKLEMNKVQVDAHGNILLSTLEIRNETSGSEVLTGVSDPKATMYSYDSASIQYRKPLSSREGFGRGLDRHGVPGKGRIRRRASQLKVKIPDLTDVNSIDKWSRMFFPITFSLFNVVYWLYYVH
T3 sequence (P18506 17-449 partner limits assumed): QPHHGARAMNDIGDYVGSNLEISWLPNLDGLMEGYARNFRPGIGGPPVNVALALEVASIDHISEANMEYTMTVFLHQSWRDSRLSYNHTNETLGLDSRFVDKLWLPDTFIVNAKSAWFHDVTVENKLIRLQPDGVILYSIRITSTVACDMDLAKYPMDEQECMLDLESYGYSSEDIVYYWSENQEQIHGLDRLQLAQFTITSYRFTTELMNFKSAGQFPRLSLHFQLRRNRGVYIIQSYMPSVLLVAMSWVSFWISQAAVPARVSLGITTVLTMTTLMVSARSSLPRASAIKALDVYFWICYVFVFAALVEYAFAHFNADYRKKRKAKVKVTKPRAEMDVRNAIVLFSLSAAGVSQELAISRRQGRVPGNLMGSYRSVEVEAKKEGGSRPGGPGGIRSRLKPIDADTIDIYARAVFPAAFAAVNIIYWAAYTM
T2 sequence (P62813 28-455): as the sequence (P62813 28-455) above
T2 sequence (P15431 26-474): as the sequence (P15431 26-474) above
T2 sequence (P23574 36-465 partner limits assumed): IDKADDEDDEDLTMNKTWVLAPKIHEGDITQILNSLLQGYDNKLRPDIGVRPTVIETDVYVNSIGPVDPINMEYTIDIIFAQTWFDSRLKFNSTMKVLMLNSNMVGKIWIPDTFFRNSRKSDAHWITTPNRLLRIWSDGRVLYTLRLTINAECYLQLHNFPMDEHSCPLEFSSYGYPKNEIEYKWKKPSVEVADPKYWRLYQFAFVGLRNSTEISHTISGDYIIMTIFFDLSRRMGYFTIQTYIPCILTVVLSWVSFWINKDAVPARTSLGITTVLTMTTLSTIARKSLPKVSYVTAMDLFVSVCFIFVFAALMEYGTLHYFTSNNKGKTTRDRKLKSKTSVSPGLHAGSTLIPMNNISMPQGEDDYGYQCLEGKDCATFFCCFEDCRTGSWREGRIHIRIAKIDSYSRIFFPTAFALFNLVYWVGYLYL
T1 sequence (P62813 28-455): as the sequence (P62813 28-455) above
T1 sequence (P15431 26-474): as the sequence (P15431 26-474) above

For the compound `COc1ccc(-n2nc3c4cc(Cl)cc(C(C)(C)C)c4[nH]cc-3c2=O)cc1` [Compound 7, 6-(tert-Butyl)-8-chloro-2-(4-methoxyphenyl)-2,5-dihydro-3H-pyrazolo[4,3-c]quinolin-3-one], on α1β1 GABAA receptors, the “shift of modulatory dose-response relative to parent compound 1” value was “approximately twenty-fold right shift”. Besides, the EC50 stood at 21 µM on α1β1γ1 GABAA receptors and 2.3 µM on α1β1δ GABAA receptors (read-out: EC50). In addition, the activity at 0.003 µM turned out to be 105.1 ± 0.7% at α1β1γ1 GABAA receptors (read-out: efficacy, % of control current (GABA EC3-5 = 100%), α1β1γ1, 3 nM) and 100 ± 0.7% on α1β1δ GABAA receptors (read-out: efficacy, % of control current (GABA EC3-5 = 100%), α1β1δ, 3 nM). The activity at 0.01 µM at α1β1γ1 GABAA receptors (read-out: efficacy, % of control current (GABA EC3-5 = 100%), α1β1γ1, 10 nM) stood at 106 ± 1.9%; on α1β1δ GABAA receptors (read-out: efficacy, % of control current (GABA EC3-5 = 100%), α1β1δ, 10 nM), 106 ± 2.8%. Also, the activity at 0.03 µM was determined as 108 ± 1.4% at α1β1γ1 GABAA receptors (read-out: efficacy, % of control current (GABA EC3-5 = 100%), α1β1γ1, 30 nM) and 108 ± 5.2% on α1β1δ GABAA receptors (read-out: efficacy, % of control current (GABA EC3-5 = 100%), α1β1δ, 30 nM). The activity at 0.1 µM on α1β1γ1 GABAA receptors (read-out: efficacy, % of control current (GABA EC3-5 = 100%), α1β1γ1, 100 nM) amounted to 112 ± 0.9%; at α1β1δ GABAA receptors (read-out: efficacy, % of control current (GABA EC3-5 = 100%), α1β1δ, 100 nM), 128 ± 3.4%. Moreover, the activity at 1 µM at α1β1γ1 GABAA receptors (read-out: efficacy, % of control current (GABA EC3-5 = 100%), α1β1γ1, 1 µM) amounted to 121 ± 3.2%; on α1β1δ GABAA receptors (read-out: efficacy, % of control current (GABA EC3-5 = 100%), α1β1δ, 1 µM), 381 ± 48.7%. Also, the activity at 3 µM came to 159 ± 3.2% on α1β1γ1 GABAA receptors (read-out: efficacy, % of control current (GABA EC3-5 = 100%), α1β1γ1, 3 µM) and 636 ± 116% on α1β1δ GABAA receptors (read-out: efficacy, % of control current (GABA EC3-5 = 100%), α1β1δ, 3 µM). In addition, the activity at 10 µM on α1β1γ1 GABAA receptors (read-out: efficacy, % of control current (GABA EC3-5 = 100%), α1β1γ1, 10 µM) was 175 ± 13.6%; at α1β1δ GABAA receptors (read-out: efficacy, % of control current (GABA EC3-5 = 100%), α1β1δ, 10 µM) it was 885 ± 293%. The “Hill slope (nH)” value amounted to 0.6±0.2 at α1β1γ1 GABAA receptors (α1β1γ1) and 1.1±0.8 at α1β1δ GABAA receptors (α1β1δ). On α1β1δ GABAA receptors (read-out: efficacy, % of control current (GABA EC3-5 = 100%), α1β1δ, 300 nM), the activity at 0.3 µM came out at 163 ± 6.2%.

Usually EC50 stands for the concentration at which the effect is half-maximal.
